Results: PMC4138991, “Building a Better Dynasore: The Dyngo Compounds Potently Inhibit Dynamin and Endocytosis” (Traffic (Copenhagen, Denmark), 2013)

Tests used:
[1] = molecular target: native sheep brain dynamin I (Ovis aries, UniProt A0ACI6PDC7); assay: PS liposome-stimulated (helical) dynamin I GTPase assay (Malachite Green); format: biochemical; conditions: GTP 50–250 μM, 4a 0.5–6 μM, 17 nM dynamin I, Lineweaver–Burke
Source text: Recombinant dynamin I was used only for the data in Table 2. The dynamin antibodies were from: Dynamin I—in‐house YF2 antibodies, raised in rabbits against two different synthetic peptides: dynamin I 629‐647 ([…]) and dynamin I 765–778 ([…]), used at 1/2000 dilution, as previously described 53; Dynamin II—Santa Cruz (C‐18, sc‐6400, used at 1/1000) and Dynamin III—Santa Cruz (P‐13, sc‐69472, used at 1/500 dilution).
The Malachite Green colorimetric GTPase assay was as described 10. Dynamin I activity was measured in its SAI activity state or was stimulated by three different methods. As each stimulus activates dynamin to different extents, each assay required different dynamin concentrations. First, maximal dynamin activity was stimulated by sonicated PS liposomes 10. […] Finally, dynamin (500 nM) SAI activity was measured using high concentrations of dynamin, which promote its cooperative self‐assembly into rings (but not helices) 26. […] After the Vmax and Km values were determined, the data were transformed using the Lineweaver–Burke equation, 1/v = 1/Vmax + (Km/Vmax)(1/[S]).

cultured CGNs [2] = assay: Fluorescent dextran uptake (ADBE) in CGNs; format: cell-based, rat; conditions: 30 μM, 15 min
Procedure: (§1) Granule neuron cultures were prepared from the cerebella of 7‐day‐old rat pups as previously described 57. In all experiments, neurons were used between 8 and 10 days in vitro.
Uptake of tetramethyrhodamine‐dextran (40 kDa) into nerve terminals of CGNs was monitored as described previously 40. Briefly, cells were left for 10 min in incubation medium and then stimulated with a train of 800 action potentials (80 Hz for 10 seconds) in the presence of tetramethyrhodamine‐dextran (50 μM). Dyngo compound 4a (30 μM) was present for 15 min prior to and including action potential stimulation. Dextran loading was determined by the number of fluorescent puncta in a defined field of view ([…]) using a 20× air objective at 550‐nm excitation and >575‐nm emission. Threshold analysis was performed to discount regions too large to represent individual nerve terminals (diameter greater than […]). The number of dextran puncta per field for each experiment (usually 10 fields of view per experiment) was averaged and subtracted from background fluorescence. To ensure that the density of nerve terminals was consistent between fields and experimental conditions, experiments were performed on the same set of cultures.

cultured CGNs [3] = assay: HRP labeling of endocytosis pathways (electron microscopy) in CGNs; format: cell-based, rat; conditions: 30 μM, 15 min, 80 Hz 10 s
Procedure: as §1
Granule neurons were processed for electron microscopy as previously described 40. Briefly, cells were transferred to incubation medium for 10 min and subsequently incubated with or without 30 μM 4a for 15 min. Cultures were next stimulated with 800 action potentials (80 Hz) in incubation medium supplemented with HRP (10 mg/mL) in the presence or absence of 4a. Cells were fixed in a 2% solution of glutaraldehyde in phosphate‐buffered saline for 30 min at 37°C directly after stimulation. After washing with 100 mM Tris (pH 7.4) cells were exposed to 0.1% diaminobenzidine and 0.2% H2O2 in 100 mM Tris. On development of color, cells were washed with 100 mM Tris and subsequently stained with 1% osmium tetroxide for 30 min. After washing, cells were post‐stained with 2% uranyl acetate for 15 min, then dehydrated using ethanol series and polypropylene oxide and embedded using Durcupan. Samples were sectioned, mounted on grids and viewed using a FEI Tecnai 12 transmission electron microscope. Intracellular structures that were less than 100 nm in diameter were arbitrarily designated to be synaptic vesicles, whereas larger structures were designated to be endosomes.

Sequence of native sheep brain dynamin I (A0ACI6PDC7 entry or part of it): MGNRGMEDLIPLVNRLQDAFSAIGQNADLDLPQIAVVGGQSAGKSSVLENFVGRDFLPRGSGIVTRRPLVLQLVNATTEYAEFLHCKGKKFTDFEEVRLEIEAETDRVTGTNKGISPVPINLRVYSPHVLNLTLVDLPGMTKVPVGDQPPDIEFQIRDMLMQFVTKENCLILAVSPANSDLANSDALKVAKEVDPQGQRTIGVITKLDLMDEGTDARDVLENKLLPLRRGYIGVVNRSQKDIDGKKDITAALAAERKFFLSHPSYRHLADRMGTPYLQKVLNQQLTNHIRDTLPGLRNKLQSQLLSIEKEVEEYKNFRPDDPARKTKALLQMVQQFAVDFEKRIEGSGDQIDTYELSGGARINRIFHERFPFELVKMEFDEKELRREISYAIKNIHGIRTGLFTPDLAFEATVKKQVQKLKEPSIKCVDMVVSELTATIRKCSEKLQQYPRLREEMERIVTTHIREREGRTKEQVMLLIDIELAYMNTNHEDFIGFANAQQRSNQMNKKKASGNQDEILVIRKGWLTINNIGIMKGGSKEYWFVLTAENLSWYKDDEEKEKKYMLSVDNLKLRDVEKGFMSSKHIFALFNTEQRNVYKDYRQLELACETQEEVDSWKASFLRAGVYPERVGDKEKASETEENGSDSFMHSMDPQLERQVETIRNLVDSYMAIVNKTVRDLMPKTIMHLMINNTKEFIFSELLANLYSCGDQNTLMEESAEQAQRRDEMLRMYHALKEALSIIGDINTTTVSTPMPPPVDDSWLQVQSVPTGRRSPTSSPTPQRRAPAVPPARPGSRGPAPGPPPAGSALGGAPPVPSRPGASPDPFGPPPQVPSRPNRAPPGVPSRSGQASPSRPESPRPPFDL

O=C(N/N=C/c1cc(O)c(O)cc1O)c1cc2ccccc2cc1O [4a, (E)-3-Hydroxy-N'-(2,4,5-trihydroxybenzylidene) -2-naphthohydrazide]
kinetics of inhibition with respect to GTP [1]: non‐competitive inhibitor
maximum block of ADBE measured by dextran uptake (cultured CGNs [2]): > 80%
number of HRP-labeled endosomes (ADBE) (cultured CGNs [3]): caused a decrease in the number
number of HRP-labeled synaptic vesicles (neuronal CME) (cultured CGNs [3]): significant reduction in the number of labeled synaptic vesicles
